Results on 14 molecules are retold here after ChEMBL document CHEMBL1149377, “8-(1-Naphthalen-2-yl-vinyl)-6,7,10-trioxaspiro (4.5) decane, a new 1,2,4-trioxane effective against rodent and simian malaria” (2006).

Structures are written as SMILES.

Assay [1] deals with Plasmodium yoelii. As to the kind of experiment: Antimalarial activity in Plasmodium yoelii MDR infected Swiss mice (Mus musculus) at 96 mg/kg Intramuscular dose. Conditions: im. The format is functional.
For assay [2], the system named is Plasmodium yoelii. In words: Antimalarial activity against Plasmodium yoelii in Swiss mice (Mus musculus) model at 96 mg/kg peroral dose. It is filed as functional. The following applies: route oral.
Assay [3] relates to Plasmodium yoelii. As to the kind of experiment: Antimalarial activity against Plasmodium yoelii infected Swiss mice (Mus musculus) at 48 mg/kg Intramuscular dose. The format is functional. Conditions: im.
In the next assay the test system is Plasmodium cynomolgi. As to the kind of experiment: Elimination of parasitaemia in Plasmodium cynomolgi infected Rhesus monkeys (Macaca mulatta) at 20 mg/kg intramuscular or 40 mg/kg peroral dose. It is filed as functional, organism-based.
Assay [4] concerns Plasmodium yoelii. In words: Antimalarial activity against Plasmodium yoelii infected Swiss mice (Mus musculus) at 72 mg/kg Intramuscular dose. The following applies: im. It is filed as functional.
Assay [5] has as its system Plasmodium yoelii. In words: Antimalarial activity against Plasmodium yoelii infected Swiss mice (Mus musculus) at 192 mg/kg peroral dose. The format is functional. Conditions: route oral.
The test system of assay [6] is Plasmodium yoelii. As to the kind of experiment: Antimalarial activity against Plasmodium yoelii infected Swiss mice (Mus musculus) at 48 mg/kg peroral dose. The format is functional. The following applies: route oral.
In assay [7] the test system is Plasmodium yoelii. As to the kind of experiment: Antimalarial activity against Plasmodium yoelii infected Swiss mice (Mus musculus) at 24 mg/kg intramuscular dose. Conditions: im. The format is functional.

Take `C=C(c1ccc(F)cc1)C1COC2(CCCCC2)OO1` (configuration not stated): the inhibition in vivo at 96 mg/kg came to 89% with Plasmodium yoelii [1] and 14% with Plasmodium yoelii [2].

Take `C=C(c1ccc2c(ccc3ccccc32)c1)C1COC2(CCCC2)OO1` (configuration not stated): the inhibition in vivo at 96 mg/kg in the assay on Plasmodium yoelii [1] and with Plasmodium yoelii [2] was 100% each time.

With `C=C(c1cccc2ccccc12)C1COC2(CCCCC2)OO1` (configuration not stated), the inhibition in vivo at 96 mg/kg in the assay with Plasmodium yoelii [1] is 87%; with Plasmodium yoelii [2] it was 83%.

Molecule `C=C(c1ccc2ccccc2c1)C1COC2(CCCCC2)OO1` (configuration not stated) came in with an inhibition in vivo at 96 mg/kg in the assay with Plasmodium yoelii [1] of 97%. For the same molecule, in the assay on Plasmodium yoelii [3], the inhibition in vivo at 48 mg/kg was 60%.

With `C=C(c1ccc2c(c1)Cc1ccccc1-2)C1COC2(CCCC2)OO1` (configuration not stated), the inhibition in vivo at 96 mg/kg in the assay with Plasmodium yoelii [1] and in the assay on Plasmodium yoelii [2] was 100% throughout.

For `C=C(c1ccc2ccc3ccccc3c2c1)C1COC2(CCCC2)OO1` (configuration not stated), the inhibition in vivo at 96 mg/kg worked out at 99% in the assay with Plasmodium yoelii [1] and 64% in the assay with Plasmodium yoelii [2].

The molecule `C=C(c1ccc2ccccc2c1)C1COC2(CCCC2)OO1` (configuration not stated) returned a clearance with Plasmodium cynomolgi of 100%. The results for the inhibition in vivo at 96 mg/kg in the assay on Plasmodium yoelii [1] and in the assay on Plasmodium yoelii [2] were 100% and 90%, respectively. Moreover, in the assay on Plasmodium yoelii [4], the inhibition in vivo at 72 mg/kg amounted to 96%. In the assay on Plasmodium yoelii [3], this molecule came in with an inhibition in vivo at 48 mg/kg of 97%. In the assay on Plasmodium yoelii [5], this molecule registered an inhibition in vivo at 192 mg/kg of 100%.

`C=C(c1ccccc1)C1COC2(CCCC2)OO1` (configuration not stated): the inhibition in vivo at 96 mg/kg is 100% with Plasmodium yoelii [1] and 15% in the assay on Plasmodium yoelii [2].

Take `C=C(c1ccc2ccc3ccccc3c2c1)C1COC2(CCCCC2)OO1` (configuration not stated): the inhibition in vivo at 96 mg/kg was 13% with Plasmodium yoelii [1] and 99% in the assay on Plasmodium yoelii [2].

With `CCN(CC)CCCC(C)Nc1ccnc2cc(Cl)ccc12` (configuration not stated) [CHLOROQUINE], in the assay with Plasmodium yoelii [6], the inhibition in vivo at 48 mg/kg is 100%. In the assay on Plasmodium yoelii [2], 96 mg/kg produced 100% inhibition in vivo.

In the case of `C=C(c1ccc2c(c1)Cc1ccccc1-2)C1COC2(CCCCC2)OO1` (configuration not stated), the inhibition in vivo at 96 mg/kg in the assay with Plasmodium yoelii [1] was 83%; in the assay with Plasmodium yoelii [2], 100%.

As for `C=C(c1ccc2c(ccc3ccccc32)c1)C1COC2(CCCCC2)OO1` (configuration not stated), the values for the inhibition in vivo at 96 mg/kg in the assay on Plasmodium yoelii [1] and in the assay with Plasmodium yoelii [2] were 81% and 100%, respectively.

Consider `C[C@@H]1CC[C@H]2[C@@H](C)C(=O)O[C@@H]3O[C@@]4(C)CC[C@@H]1[C@]32OO4` [ARTEMISININ], for which the inhibition in vivo at 24 mg/kg with Plasmodium yoelii [7] was 100%. Moreover, in the assay with Plasmodium yoelii [3], the inhibition in vivo at 48 mg/kg turned out to be 100%.

`C=C(c1cccc2ccccc12)C1COC2(CCCC2)OO1` (configuration not stated): the inhibition in vivo at 96 mg/kg in the assay on Plasmodium yoelii [1] is 91%; with Plasmodium yoelii [2], 78%.

One may read the inhibition in vivo as the relative decrease from the control value, in per cent. A low value points to little suppression.
